Patent publication US9980967B1, “Method for overcoming drug resistance of EGFR mutation and cancerous stemness of human non-small cell lung carcinoma” (NATIONAL CHIAO TUNG UNIVERSITY, priority 2017, dated 2018)

Key:
PLC26 cells [1] = assay: MTT cell viability assay in PLC26 cells; assay type: cell-based, human; details: 0~40 μM for 24 hours, compared with Gefitinib
Method: After treatment, the cells were re-cultured in fresh medium for 2 days. The cell viability was analyzed by MTT assays. The results were obtained from three independent experiments and the bar represents the mean±S.E.M. ***p<0.001 indicates significant difference between gefitinib and SP101 treated samples.
A549 (ATCC number: CCL-185) was a non-small cell lung carcinoma cell line which expressed wild type EGFR and with K-Ras mutation (G12S). H1975 (ATCC number: CRL-5908) was a non-small cell lung carcinoma cell line which expressed EGFR L858R/T790M mutation. Oct4 and Nanog overexpression in A549-ON presented the properties of cancer stem-like cells, as well as epithelial-mesenchymal transdifferentiation. PLC26 was lung cancer cells that separated from pleural effusion of a clinical lung cancer patient (IRB number: 103-011-E). A549-ON cells were cultured in DMEM medium. A549 and H1975 cells were maintained in RPMI-1640 medium. PLC26 cells were maintained in LHC-9 medium. […]
We have further investigated the effect of SP101 in PLC26 lung cancer cells separated from the pleural effusion of a clinical lung cancer patient. To compare the cell viability of SP101 and Gefitinib in PLC26 cells, the cells were treated with 0˜40 μM SP101 or Gefitinib for 24 hours, and analyzed by MTT assays. […] The apoptosis levels of SP101 in PLC26 cells were analyzed by Annexin V and PI staining. […]

H1975 xenograft tumors = assay: Xenografted human NSCLC (H1975) tumors in nude mice; assay type: in vivo; details: 30 mg/kg once per four days
Description: The results were obtained from twelve mice and the bar represents the mean±S.E.M.**p<0.01, indicating significant difference between control and SP101 treatment group mice. ###p<0.001 indicates significant differences between SP101 and Gefitinib-treated mice.
The tumor weight was means±*p<0.05 indicating significant differences between control and SP101 treatment group mice. #p<0.05 indicates significant differences between SP101 and Gefitinib-treated mice.
NSCLC tumors in nude mice were established. Seven-week-old nude mice were subcutaneously injected with 3×10^6 H1975 cells. Please refer to FIGS. 7 and 8. After 7 to 10 days inoculation, the nude mice were treated with vehicle or 30 mg/kg SP101 or 30 mg/kg Gefitinib once per four days and tumor sizes in the nude mice were measured every four days. The nude mice were sacrificed after treatment for 16 days; the tumors were harvested to measure tumor volume/weight and further analyze tumor tissues. […] Please refer to FIG. 9.

[2] = molecular target: T1, phosphorylated EGFR (Tyr 1068) (Homo sapiens, UniProt P00533, L858R/T790M); assay: Western blot of phosphorylated EGFR and total EGFR in H1975 cells; assay type: cell-based; details: 20~30 μM for 24 hours
T1 construct: endogenous in cells; host or cells: H1975 (ATCC CRL-5908)
Method: EGFR binding cognate ligands may lead to autophosphorylation of receptor tyrosine kinase and subsequent activation of signal transduction pathways of cell survival. Besides, aberrant tyrosine kinase activation increases proliferation and drug resistance of malignant cells. Please refer to FIG. 3. H1975 cells were treated with 0˜30 μM of SP101 for 24 hours. The total protein extracts were prepared for Western blot analyses using specific antibodies, including rabbit anti-p-EGFR (Tyr1068), rabbit anti-EGFR and mouse anti-actin. Representative immunoblotting data were shown from one of three separate experiments with similar findings. Actin was an internal control protein.

[3] = tested on: Survivin and cleaved-form Caspase 3 in H1975 cells; assay: Western blot and immunofluorescence of Survivin and cleaved Caspase 3 in H1975 cells; assay type: cell-based, human
Description: (§1) FIG. 5 is a result of immunofluorescence staining and confocal microscopy. The green color indicated location of Survivin protein excited with 488 nm. The β-tubulin protein was stained with Cy3-labeled mouse anti-β-tubulin antibody (red color). The fluorescence intensity of β-tubulin was excited with 543 nm and the emission was collected in range of 560-580 nm. Blue color indicated location of nuclei following stained with Hoechst 33258 and was excited with 405 nm and the emission was collected in range of 415-450 nm. Overlapping localization is shown in the merged images.
as §1, with “FIG. 6” for “FIG. 5”, “of cleaved Caspase 3” for “of Survivin”
Reduction of Survivin protein expression has shown to inhibit tumor growth in NSCLC. Please refer to FIG. 4. H1975 cells with EGFR (T790M) mutation were treated with or without SP101 (20˜30 μM for 24 hours) and analyzed by Western blot. […] Actin was an internal control protein.
Further, immunofluorescence staining and confocal microscopy were utilized to determine the expression and cell morphology of Survivin and cleaved-form Caspase 3 after treatment with SP101 in H1975 cells with EGFR (T790M) mutation. The cells were treated with or without 30 μM of SP101 for 24 hours. At the end of treatment, the cells were fixed with 4% paraformaldehyde at 37 °C for 1 hour. The fixed cells were incubated with rabbit anti-Survivin antibody or rabbit anti-cleaved caspase-3 antibody at 4 °C overnight. Then the cells were stained with goat anti-rabbit IgG Dylight 488 at 37 °C for 1 hour. Please refer to FIGS. 5 and 6. The green fluorescence (Dylight 488) indicated location of Survivin and cleaved-form Caspase 3. The blue fluorescence (Hoechst 33258) and red fluorescence (Cy3) represented nucleus and β-tubulin respectively. Treatment with 30 μM SP101 for 24 hours, Survivin protein expression was reduced; in addition, the apoptotic bodies and cleaved-form Caspase 3 protein were induced.

PLC26 cells [4] = assay: Annexin V/PI apoptosis flow cytometry in PLC26 cells; assay type: cell-based, human; details: 30 μM for 24 hours
Method: At the end of treatment, apoptosis was measured by Annexin V-PI staining using flow cytometry analysis. The population of Annexin V+/PI− cells represents cells undergoing early apoptosis (low right), whereas the fraction of Annexin V+/PI+ cell are those undergoing late apoptosis (upper right).
We have further investigated the effect of SP101 in PLC26 lung cancer cells separated from the pleural effusion of a clinical lung cancer patient. To compare the cell viability of SP101 and Gefitinib in PLC26 cells, the cells were treated with 0˜40 μM SP101 or Gefitinib for 24 hours, and analyzed by MTT assays. Please refer to FIG. 21. […] The apoptosis levels of SP101 in PLC26 cells were analyzed by Annexin V and PI staining. The PLC26 cells were trypsinized and then incubated with propidium iodide (5 μl) and Annexin V-FITC (5 μl) at room temperature for 5 mins before flow cytometry. Please refer to FIG. 22.

[5] = 30 μM for 24 hours, immunofluorescence and confocal microscopy
[6] = 20~30 μM for 24 hours, Western blot

**Q.** For `CCCCCCCCCCCCOC(=O)CCC(=O)N1CCN(CCCOc2cc3c(Nc4ccc(F)c(Cl)c4)ncnc3cc2OC)CC1` [SP101, dodecyl 4-(4-(3-(4-(3-chloro-4-fluorophenylamino)-7-methoxyquinazolin-6-yloxy)propyl)piperazin-1-yl)-4-oxobutanoate], which “reduction of cell viability” value (PLC26 cells [1]) is on record?
**A.** The value was “more effective on the reduction of cell viability than Gefitinib”.

**Q.** And the “body weight of the nude mice” value (H1975 xenograft tumors; during the treatment period)?
**A.** The value was “did not alter”.

**Q.** What about the tumor growth (H1975 xenograft tumors; H1975 xenograft in nude mice, 16 days) of the same compound?
**A.** Its tumor growth is “significantly inhibited”.

**Q.** And the tumor weight (H1975 xenograft tumors; H1975 xenograft in nude mice, after sacrifice at 16 days, compared with Gefitinib)?
**A.** The tumor weight was “more potent on the inhibition of tumor weight than Gefitinib”.

**Q.** And the “phosphorylated EGFR (Tyr 1068) protein level” value [2]?
**A.** The value was “significantly reduced”.

**Q.** What about the “total EGFR protein level” value [2] of the same compound?
**A.** The value was “did not inhibit”.

**Q.** What about the Survivin protein expression [3, 5] of the same compound?
**A.** The Survivin protein expression was “reduced”.

**Q.** And the “apoptotic bodies and cleaved-form Caspase 3 protein” value [3, 5]?
**A.** Its value is “induced”.

**Q.** And the Survivin protein level [3, 6]?
**A.** The Survivin protein level was “reduced”.

**Q.** What about the “apoptotic protein level of cleaved-form Caspase 3” value [3, 6] of the same compound?
**A.** Its value is “induced”.

**Q.** And the “levels of Annexin V+/PI− cells (early apoptosis) and Annexin V+/PI+ cells (late apoptosis)” value (PLC26 cells [4])?
**A.** Its value is “significantly increased”.
